Series [1] concerns hereditary hypertension rats (SHR). Briefly: Experiment 1: hypotensive effect of alcohol-water dual-extraction of Radix Paeoniae Alba on SHR, tail arterial blood pressure. The note with it: 15 mg/Kg body weight. The format is in vivo, rat. An excerpt:
Rats: old age (over 48 weeks old) hereditary hypertension rats (SHR) and the normal controls were Wistar rats. Rat blood pressure measurement: BP-98 A type non-invasive tail arterial blood pressure measuring instrument, Softron Co., Ltd. (Japan). Grouping treatment: All rats were adaptively fed for a week, measured with blood pressure and weight, and set into groups. SHR rats were divided into alcohol-water dual-extraction of Radix Paeoniae Alba large dosage group for the dosage of 3.2 g/kg body weight, alcohol-water dual-extraction of Radix Paeoniae Alba medium dosage group for the dosage of 0.8 g/kg body weight, alcohol-water dual-extraction of Radix Paeoniae Alba small dosage group for the dosage of 0.2 g/kg body weight, alcohol extraction of Radix Paeoniae Alba group for the dosage of 0.8 g/kg body weight, water extraction of Radix Paeoniae Alba group for the dosage of 0.8 g/kg body weight, Radix Paeoniae Alba powder group for the dosage of 0.8 g/kg body weight; utilizing gastric infusion; hypertension model control group receives equal amount of physiological saline; Irbesartan control group receives 15 mg/Kg body weight of Irbesartan; and normal control group receives equal amount of physiological saline. Each group has 8 rats. The treatment last for 3 weeks (multiple of 3-12 weeks of treatments are performed, the results can be repeated, and typical experimental results are reported below). Blood pressure measurement: The Rats were pre-heated to 38° C. for 5-10 mins to avoid less blood flow of the tail that affects the pressure measurement. Three measurements are continuously carried out as the rat was in an awake and quiet state. The average value of the 3 measurements was considered as the blood pressure of the rat.

Series [2] concerns adult sitting and lying blood pressure. Briefly: Clinical test data on the instructions of Irbesartan (Aprovel). It is filed as in vivo, human. The note with it: 150-300 mg daily for adults.
For series [3] the test system is unchanged. The conditions noted are these: adult daily dosage of 150-300 mg, cited from earlier work.
In series [4] the test system is hereditary hypertension rats (SHR). Briefly: Experiment 2: hypotensive effect of the sample of the Embodiment 1 on SHR, tail arterial blood pressure. The format is in vivo, rat. The conditions noted are these: 15 mg/Kg body weight. The text has this:
Rats: old age (over 48 weeks old) hereditary hypertension rats (SHR) and the normal controls were Wistar rats. Rat blood pressure measurement: BP-98 A type non-invasive tail arterial blood pressure measuring instrument, Softron Co., Ltd. (Japan). 1. Grouping treatment: All rats were adaptively fed for a week, measured with blood pressure and weight, and set into groups. SHR rats were grouped: sample of the Embodiment 1 (alcohol-water dual-extraction of Radix Paeoniae Alba with Dendrobium Officinale powder added)-large dosage group for the dosage of 3.5 g/kg body weight, sample of the Embodiment 1-medium dosage group for the dosage of 1.4 g/kg body weight, sample of the Embodiment 1-small dosage group for the dosage of 0.35 g/kg body weight, Dendrobium Officinale powder for the dosage of raw medicine of 0.8 g/kg body weight (which is the same as the raw medicine amount of the Dendrobium Officinale powder (0.8 g/kg body weight) contained in 1.4 g/Kg body weight of the sample of the Embodiment 1), alcohol-water dual-extraction of Radix Paeoniae Alba for the dosage of raw medicine of 0.6 g/kg body weight (which is the same as the raw medicine amount of the Radix Paeoniae Alba (0.6 g/kg body weight) contained in 1.4 g/Kg body weight of the sample of the Embodiment 1); utilizing gastric infusion; hypertension model control group receives equal amount of physiological saline; Irbesartan control group receives 15 mg/Kg body weight of Irbesartan; and normal control group receives equal amount of physiological saline. Each group has 8 rats. The treatment last for 3 weeks (multiple of 3-12 weeks of treatments are performed, the results can be repeated, and typical experimental results are reported below). 2. Blood pressure measurement: The Rats were pre-heated to 38° C. for 5-10 mins to avoid less blood flow of the tail that affects the pressure measurement. Three measurements are continuously carried out as the rat was in an awake and quiet state. The average value of the 3 measurements was considered as the blood pressure of the rat.

A further series has as its system normal Wistar rat. Briefly: Experiment 3: blood pressure effect of the sample of the Embodiment 1 on normal rats. It is filed as in vivo. The conditions noted are these: 5 mg medicine/kg body weight; for diastolic pressure / systolic pressure: normal Wistar rats. The method, then: Rat: 12 Weeks Old Normal Wistar Rat.
Rat blood pressure measurement: BP-98 A type non-invasive tail arterial blood pressure measuring instrument, Softron Co., Ltd. (Japan).
Grouping treatment: All rats were adaptively fed for a week, measured with blood pressure and weight, and set into groups. […] Ten rats for each group, treating for 2 weeks.
Blood pressure measurement: The Rats were pre-heated to 38° C. for 5-10 mins to avoid less blood flow of the tail that affects the pressure measurement. Three measurements are continuously carried out as the rat was in an awake and quiet state. The average value of the 3 measurements was considered as the blood pressure of the rat. The blood pressure is measured prior to the treatment and 2 hours after each administration every week.

Setting [5] is: Treated for 1 Week, 2 hours after administration.
Setting [6] is: Treated for 2 Weeks, 2 hours after administration.
[7] abbreviates: Treated for 3 Weeks, 2 hours after administration.
Where [8] appears, read: sitting and lying blood pressure.
Where [9] appears, read: Treat 3 weeks, 24 hrs, 15 mg/kg.

Results on 2 molecules are retold here after US20240252576A1, “Application Method of Radix Paeoniae Alba and Dendrobium Officinale for Preparing Drug for Treatment of Hypertension” (Hangzhou Danhe Pharmaceutical Co., Ltd., priority 2018, published 2024).

On to `CCCCC1=NC2(CCCC2)C(=O)N1Cc1ccc(-c2ccccc2-c2nnn[nH]2)cc1` [Irbesartan], for which the diastolic pressure in series [1] (Before Treatment) was 166.7 ± 4.21 ^ mmHg; in series [1] (First Treated), 155.2 ± 3.25 mmHg; in series [1] (setting [5]), 150.8 ± 2.89 mmHg; in series [1] (setting [6]), 151.8 ± 2.71 mmHg; in series [1] (setting [7]), 152.9 ± 2.89 mmHg; in series [4] (Before Treatment) it was 166.7 ± 4.21 ^ mmHg. Also, the diastolic pressure in series [4] (Treat 1 time, 2 hrs) is listed as 150.1 ± 3.25 mmHg; in series [4] (Treat 1 time, 24 hrs), 156.6 ± 3.57^Δ mmHg; in series [4] (Treat 1 week, 2 hrs) it was 149.7 ± 2.36 mmHg; in series [4] (Treat 1 week, 24 hrs), 155.3 ± 2.36 mmHg; in series [4] (Treat 2 weeks, 2 hrs), 147.4 ± 3.46 mmHg; in series [4] (Treat 2 weeks, 24 hrs), 156.2 ± 3.25 mmHg. Further, the diastolic pressure in series [4] (Treat 3 weeks, 2 hrs, 15 mg/kg) is recorded as 149.5±3.24 mmHg; in series [4] (setting [9]), 154.1±2.08 mmHg. The systolic pressure in series [1] (Before Treatment) is 215.2 ± 4.45 ^ mmHg; in series [1] (First Treated), 181.6 ± 3.12 mmHg; in series [1] (setting [5]), 180.4 ± 3.56 mmHg; in series [1] (setting [6]), 178.6 ± 2.04 mmHg; in series [1] (setting [7]), 177.8 ± 2.12 mmHg; in series [4] (Before Treatment), 215.3 ± 5.87 ^ mmHg. Further, the systolic pressure is 182.4 ± 3.89 mmHg in series [4] (Treat 1 time, 2 hrs); 198.7 ± 3.61 mmHg in series [4] (Treat 1 time, 24 hrs); 181.2 ± 3.34 mmHg in series [4] (Treat 1 week, 2 hrs); 197.8 ± 2.87 mmHg in series [4] (Treat 1 week, 24 hrs); 177.5 ± 2.23 mmHg in series [4] (Treat 2 weeks, 2 hrs); 199.9 ± 2.36 mmHg in series [4] (Treat 2 weeks, 24 hrs). Moreover, the systolic pressure in series [4] (Treat 3 weeks, 2 hrs, 15 mg/kg) is listed as 178.9±3.87 mmHg; in series [4] (setting [9]), 198.7±2.24 mmHg. The “hypotensive extent in the hypotensive peak, diastolic pressure” value in series [2] (calculated from intermediate values 6.5 mmHg/0.7) was 9.29 mmHg. Besides, the “hypotensive extent in the hypotensive peak, systolic pressure” value in series [2] (calculated from intermediate values 10.5 mmHg/0.7) was 15.00 mmHg. Moreover, the “ratio of the hypotensive valley and peak” value in series [3] was 60-80%. Besides, the “average hypotensive valley value, diastolic” value in series [3] (setting [8]) was 5-8 mmHg. Further, the “average hypotensive valley value, systolic” value in series [3] (setting [8]) is reported as 8-13 mmHg.
For the molecule `CCOC(=O)C1=C(COCCN)NC(C)=C(C(=O)OC)C1c1ccccc1Cl` (stereo not shown) [Norvasc, amlodipine besylate], the “hypotensive effect to the normal blood pressure rats” value with normal Wistar rat is given as “triggered relatively great hypotensive effect”. The figures for the diastolic pressure in the series on normal Wistar rat (Before Treatment), with normal Wistar rat (setting [5]) and in the series with normal Wistar rat (setting [6]) were 99.2 ± 4.87 mmHg, 71.8 ± 3.76 mmHg and 74.5±2.76 mmHg, respectively. For the same molecule, the figures for the systolic pressure in the series with normal Wistar rat (Before Treatment), in the series with normal Wistar rat (setting [5]) and with normal Wistar rat (setting [6]) were 137.6 ± 5.46 mmHg, 95.7 ± 4.69 mmHg and 99.2±5.75 mmHg, respectively.
